One series can be described thus: Photostability. It counts as physicochemical. Conditions: water, 1.2×10^−6M, room temperature, continuous 468 nm irradiation for an hour. The procedure:
Boc-badAla-OH prepared in Example 2 was dissolved in water in a concentration of 1.2×10^−6M, and photostability was examined at room temperature using ISA “FluoroMax-2” analyzer, irradiating a beam of 468 nm excitation wavelength continuously for an hour. As a result, […] an hour after the irradiation, it held 95% fluorescence intensity of that at the start of the experiment (FIG. 6). […] On the other hand, values of commercial products BODIPY and FITC shown on the literature, obtained by dissolving them respectively in TBS buffer for measurement on FluoroMax, were respectively 88% and 85%.

The next series in a line: Absorption spectrum. It counts as physicochemical. Conditions: in ethanol, water and ethanol/water (6:4), 2.3×10^−5M, room temperature. The procedure:
Boc-badAla-OH prepared in Example 2 was dissolved respectively in ethanol, water and a mixture of ethanol and water (6:4) in a concentration of 2.3×10^−5M, and their absorption spectra were measured at room temperature using JASCO “V560” supplied by JASCO Corporation.

The next series can be described thus: Fluorescence lifetime. It counts as physicochemical. Conditions: 50 mM PBS (pH7.0), 3×10^−4M, room temperature, excitation 415 nm, measured at 500 nm. The procedure: Boc-badAla-OH prepared in Example 2 was dissolved in 50 mM PBS (pH7.0) in a concentration of 3×10^−4M, and fluorescence intensity was measured at room temperature at 500 nm, setting the excitation wavelength at 415 nm of blue laser from a simple-type beam system, using Hamamatsu “microchannel photomultiplier tube” supplied by Hamamatsu Photonics K.K. which was cooled to −30° C., and then fluorescence lifetime was measured.
As a result, the obtained fluorescence lifetime was τ=16.6 nanoseconds.
While the lifetime of BODIPY, a commercial product, was 5.7 nanoseconds (MeOH) on the literature, and that of FITC was 4.1 nanoseconds (0.01M NaOH) on the literature. The other primary spectroscopic properties of fluorescent probes were listed on the homepage of IOM GmbH (see, www.iom-berlin.de).

For series [1] the following is noted: TBS buffer, measured on FluoroMax, values on the literature; cited from earlier work.
For series [2] the following is noted: 0.01M NaOH, on the literature; cited from earlier work.

Each structure is given as a SMILES string.

Consider `CC(C)(C)OC(=O)NC(Cc1ccc2[nH]c3cc4ccccc4cc3c(=O)c2c1)C(=O)O` (centres unmarked) [Boc-badAla-OH], for which the “fluorescence intensity held relative to start of experiment” value in “Photostability” worked out at 95%. The maximum absorption wavelength result in “Absorption spectrum” is recorded as “around 460 nm”. For the same compound, the “fluorescence lifetime τ” value in “Fluorescence lifetime” came to 16.6 nanoseconds.

Turning to `O=C1OC2(c3ccc(O)cc3Oc3cc(O)ccc32)c2ccc(N=C=S)cc21` [FITC], the “photostability (fluorescence intensity held)” value in series [1] was 85%. Moreover, the fluorescence lifetime in series [2] is 4.1 nanoseconds.
